Data taken from ChEMBL document CHEMBL1201862, “PubChem BioAssay data set” (2004).
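Compound exposure: 48 hours, 5 concentrations, 96-well plates. Here, GI50 denotes the concentration required for 50% inhibition of growth.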 Activity calls are given as the source filed them. No stated cut-off is given here; in the data, active = GI50 up to about 1.1 µM and inactive = higher.

What was measured:
Assay in all cases: DTP human tumour cell line panel, 48 h
BT-549 = test system: BT-549
DU-145 = test system: DU-145
HCT-15 = test system: HCT-15
HL-60 = test system: HL-60
Malme-3M = test system: Malme-3M
NCI-H23 = test system: NCI-H23
NCI-H522 = test system: NCI-H522
OVCAR-3 = test system: OVCAR-3
OVCAR-4 = test system: OVCAR-4
PC-3 = test system: PC-3
RPMI-8226 = test system: RPMI-8226
SK-MEL-28 = test system: SK-MEL-28
SK-OV-3 = test system: SK-OV-3
SNB-75 = test system: SNB-75
SW-620 = test system: SW-620
UACC-257 = test system: UACC-257
CCRF-CEM = test system: CCRF-CEM
NCI-H460 = test system: NCI-H460
RXF 393 = test system: RXF 393

Compound | GI50 (BT-549) | GI50 (DU-145) | GI50 (HCT-15) [µM] | GI50 (HL-60) | GI50 (Malme-3M) | GI50 (NCI-H23) | GI50 (NCI-H522) | GI50 (OVCAR-3) | GI50 (OVCAR-4) | GI50 (PC-3) | GI50 (RPMI-8226) | GI50 (SK-MEL-28) | GI50 (SK-OV-3) | GI50 (SNB-75) | GI50 (SW-620) | GI50 (UACC-257) | GI50 (CCRF-CEM) | GI50 (NCI-H460) | GI50 (RXF 393)
COc1nc(N)c(C#N)c(C#N)c1C#N | > 10 µM (inactive) | > 10 µM (inactive) | > 10 | > 10 µM (inactive) | > 10 µM (inactive) | > 10 µM (inactive) | > 10 µM (inactive) | > 10 µM (inactive) | > 10 µM (inactive) | > 10 µM (inactive) | > 10 µM (inactive) | > 10 µM (inactive) | > 10 µM (inactive) | > 10 µM (inactive) | > 10 µM (inactive) | > 10 µM (inactive) | – | – | –
OCC1OC(OCC(O)C(O)C(O)C(/C=N/Nc2ccccc2)=N/Nc2ccccc2)C(O)C(O)C1O (stereo unspecified) | > 100 µM (inactive) | > 100 µM (inactive) | > 100 | > 100 µM (inactive) | 85.5 µM (inactive) | > 100 µM (inactive) | – | > 100 µM (inactive) | – | > 100 µM (inactive) | > 100 µM (inactive) | > 100 µM (inactive) | > 100 µM (inactive) | > 100 µM (inactive) | > 100 µM (inactive) | > 100 µM (inactive) | > 100 µM (inactive) | 30.9 µM (inactive) | –
COC(=O)/C=C/N1CC1 | > 10 µM (inactive) | > 10 µM (inactive) | > 10 | 8.63 µM (inactive) | > 10 µM (inactive) | > 10 µM (inactive) | > 10 µM (inactive) | 5.81 µM (inactive) | 4.82 µM (inactive) | 3.12 µM (inactive) | > 10 µM (inactive) | > 10 µM (inactive) | > 10 µM (inactive) | 3.48 µM (inactive) | – | > 10 µM (inactive) | > 10 µM (inactive) | > 10 µM (inactive) | –
Cc1ccc(C2(O)CS/C(=N\C34CC5CC(CC(C5)C3)C4)N2C(P(=O)(O)O)P(=O)(O)O)cc1 (stereo unspecified) | > 100 µM (inactive) | > 100 µM (inactive) | > 100 | 37.7 µM (inactive) | 63.7 µM (inactive) | > 100 µM (inactive) | – | > 100 µM (inactive) | > 100 µM (inactive) | 79.3 µM (inactive) | > 100 µM (inactive) | > 100 µM (inactive) | 72.8 µM (inactive) | 38.6 µM (inactive) | > 100 µM (inactive) | – | – | 41.3 µM (inactive) | –
O=C1c2cccnc2S(=O)(=O)N1c1ccc([N+](=O)[O-])cc1 | > 100 µM (inactive) | > 100 µM (inactive) | > 100 | 24 µM (inactive) | 51.8 µM (inactive) | > 100 µM (inactive) | 24.9 µM (inactive) | > 100 µM (inactive) | > 100 µM (inactive) | > 100 µM (inactive) | 57 µM (inactive) | > 100 µM (inactive) | > 100 µM (inactive) | > 100 µM (inactive) | > 100 µM (inactive) | > 100 µM (inactive) | 68.5 µM (inactive) | > 100 µM (inactive) | –
Cc1nc(C(N)=S)sc1C(/C=C/c1ccc(Cl)c(Cl)c1)=N/NC(C)(C)C | > 100 µM (inactive) | > 100 µM (inactive) | > 100 | 61.8 µM (inactive) | – | > 100 µM (inactive) | 75.3 µM (inactive) | – | 88.5 µM (inactive) | > 100 µM (inactive) | – | > 100 µM (inactive) | > 100 µM (inactive) | > 100 µM (inactive) | > 100 µM (inactive) | > 100 µM (inactive) | 32.8 µM (inactive) | > 100 µM (inactive) | > 100 µM (inactive)
O=C(O)CSC(CC(=O)c1ccc(Cl)cc1)c1ccc(Cl)cc1 (stereo unspecified) | 29.9 µM (inactive) | 34.8 µM (inactive) | 22.1 | 2.37 µM (inactive) | – | 42.7 µM (inactive) | 14.7 µM (inactive) | 20.7 µM (inactive) | 27.4 µM (inactive) | 37.4 µM (inactive) | 6.95 µM (inactive) | – | 36.5 µM (inactive) | 49.8 µM (inactive) | 4.17 µM (inactive) | 21.2 µM (inactive) | 8.71 µM (inactive) | 30.8 µM (inactive) | –
Cc1ccc(O)c(/N=N\c2c(O)cc(S(=O)(=O)O)c3ccccc23)c1 | 81.7 µM (inactive) | – | 43.6 | 16.4 µM (inactive) | 25.2 µM (inactive) | – | – | 22.5 µM (inactive) | 66.1 µM (inactive) | 33.7 µM (inactive) | 37.9 µM (inactive) | 45.3 µM (inactive) | 51.4 µM (inactive) | – | 45.2 µM (inactive) | 94.6 µM (inactive) | 23.1 µM (inactive) | 35.6 µM (inactive) | > 100 µM (inactive)
[O-]c1c[n+](-c2ccccc2)no1 | > 100 µM (inactive) | > 100 µM (inactive) | > 100 | > 100 µM (inactive) | > 100 µM (inactive) | > 100 µM (inactive) | – | > 100 µM (inactive) | > 100 µM (inactive) | > 100 µM (inactive) | > 100 µM (inactive) | > 100 µM (inactive) | > 100 µM (inactive) | > 100 µM (inactive) | > 100 µM (inactive) | > 100 µM (inactive) | > 100 µM (inactive) | > 100 µM (inactive) | > 100 µM (inactive)
Cc1cc(S(N)(=O)=O)c(S/C(=N\Nc2ccc([N+](=O)[O-])cc2)c2ccc(Cl)cc2)cc1Cl | 4.65 µM (inactive) | 2.19 µM (inactive) | 4.3 | 44.3 µM (inactive) | 1.59 µM (inactive) | 2.25 µM (inactive) | 3.21 µM (inactive) | 1.74 µM (inactive) | 1.71 µM (inactive) | – | 2.58 µM (inactive) | 0.573 µM (active) | 1.96 µM (inactive) | 1.83 µM (inactive) | 3.22 µM (inactive) | 2.72 µM (inactive) | 3.56 µM (inactive) | 2.17 µM (inactive) | 1.75 µM (inactive)
O=C1CC(Cl)c2c(Cl)sc(Cl)c21 (stereo unspecified) | 4.06 µM (inactive) | 2.47 µM (inactive) | 2.02 | 1.4 µM (inactive) | 1.42 µM (inactive) | 2.88 µM (inactive) | 1.21 µM (inactive) | 2.31 µM (inactive) | 4.57 µM (inactive) | 2.2 µM (inactive) | 0.155 µM (active) | 2.1 µM (inactive) | 18.6 µM (inactive) | 4.56 µM (inactive) | 1.75 µM (inactive) | 2.96 µM (inactive) | 0.255 µM (active) | 13.8 µM (inactive) | –
CCN(CC)S(=O)(=O)c1ccc2[nH]c(NC(=O)OC)nc2c1 | > 100 µM (inactive) | > 100 µM (inactive) | 47.2 | 12.9 µM (inactive) | > 100 µM (inactive) | > 100 µM (inactive) | > 100 µM (inactive) | 80.9 µM (inactive) | 35.6 µM (inactive) | – | 14 µM (inactive) | 37.3 µM (inactive) | > 100 µM (inactive) | 42.6 µM (inactive) | 33.7 µM (inactive) | 8.02 µM (inactive) | 25.9 µM (inactive) | 49.2 µM (inactive) | 81.3 µM (inactive)
COc1ccc(C(c2ccccc2)N2C(=O)CCC2C(=O)O)cc1OC (stereo unspecified) | > 100 µM (inactive) | > 100 µM (inactive) | > 100 | > 100 µM (inactive) | > 100 µM (inactive) | > 100 µM (inactive) | > 100 µM (inactive) | > 100 µM (inactive) | > 100 µM (inactive) | > 100 µM (inactive) | > 100 µM (inactive) | 14 µM (inactive) | > 100 µM (inactive) | > 100 µM (inactive) | > 100 µM (inactive) | > 100 µM (inactive) | > 100 µM (inactive) | > 100 µM (inactive) | –
O=[N+]([O-])c1ccc2c(c1)C(N1CCN(CCO)CC1)Cc1ccc(F)cc1S2 (stereo unspecified) | 10.8 µM (inactive) | 14.8 µM (inactive) | 5.93 | 5.02 µM (inactive) | – | 13.5 µM (inactive) | 3.48 µM (inactive) | 16.4 µM (inactive) | 12.4 µM (inactive) | 2.65 µM (inactive) | – | 1.96 µM (inactive) | 17.3 µM (inactive) | 2.05 µM (inactive) | 4.95 µM (inactive) | 2.57 µM (inactive) | 3.18 µM (inactive) | 8.61 µM (inactive) | < 0.01 µM (active)
C=C(C)/C=C/C(O)[C@](C)(O)[C@H]1[C@H](O)C[C@@]2(C)[C@@H]3CCc4c(cc(OC5OC(CO)C(O)C(O)C5O)c(O)c4C)C3(C)C(=O)C[C@]12C (stereo partly specified) | > 10 µM (inactive) | > 100 µM (inactive) | > 100 | – | > 100 µM (inactive) | 64.4 µM (inactive) | > 100 µM (inactive) | > 100 µM (inactive) | > 100 µM (inactive) | > 100 µM (inactive) | – | > 100 µM (inactive) | > 100 µM (inactive) | > 100 µM (inactive) | > 100 µM (inactive) | > 100 µM (inactive) | > 100 µM (inactive) | > 100 µM (inactive) | > 100 µM (inactive)
CC(C(=O)O)C1Nc2ccccc2NC1=O (stereo unspecified) | > 100 µM (inactive) | > 100 µM (inactive) | > 100 | 23.3 µM (inactive) | > 100 µM (inactive) | > 100 µM (inactive) | – | > 100 µM (inactive) | > 100 µM (inactive) | > 100 µM (inactive) | 37.4 µM (inactive) | > 100 µM (inactive) | > 100 µM (inactive) | > 100 µM (inactive) | > 100 µM (inactive) | > 100 µM (inactive) | 14.2 µM (inactive) | > 100 µM (inactive) | > 100 µM (inactive)
